# Data: patent publication US20090220462A1, “STEM CELLS” (Duke University, priority 2005, published 2009)
# Several values for one entry are separate records, joined by “and”; a condition that tells them apart may be missing. Identical values can stand only once.
# Tests used:
# [1] = tested on: CB CD34+CD38−lin− cells; test: 7 day culture of CB CD34+CD38−lin− cells with TSF with and without ATRA (immunophenotype, CFC, morphology); type: cell-based, human
# Method: (§1) Primary human BM and CB CD34^+CD38^−lin^− cells were placed in culture with 20 ng/mL thrombopoietin, 100 ng/mL SCF, and flt-3 ligand (TSF), a cytokine combination previously found to induce human stem and progenitor cell proliferation and differentiation in vitro (Chute et al, Blood 105:576-583 (2005), Chute et al, Stem ells 22:202-215 (2004)). In order to assess whether inhibition of ALDH activity could block the differentiation of human HSCs induced to proliferate by TSF, 1-2×10^4 BM or CB CD34^+CD38^−lin^− cells were cultured×7 days with IMDM, 10% FBS and 1% pcn/strp supplemented with TSF with and without 100 μM DEAB. At day 7, the progeny of all cultures were collected, washed×2 and cell counts were performed. A minimum of n=5 experiments was performed per culture condition to allow statistical comparisons to be performed. Immunophenotypic analysis was performed on progeny cells using anti-human CD34 and CD38 mAbs (Becton Dickinson) and isotype control IgG mAbs and compared with day 0 (input) staining. Fourteen day methylcellulose CFC assays (colony forming unit-granulocyte monocyte, CFU-GM, burst forming unit-erythroid, BFU-E, and colony forming unit-mix, CFU-Mix) were performed as we have previously described (Chute et al, Blood 100:4433-4439 (2002), Chute et al, Blood 105:576-583 (2005), Chute et al, Stem ells 22:202-215 (2004)) to compare the number of lineage committed CFCs within day 0 CD34^+CD38^−lin^− cells and their progeny. Morphologic analysis of day 0 CD34^+CD38^−lin^− cells and their progeny following 7 day culture was performed using Wrights-Geimsa staining and microscopic analysis under oil immersion (100×).
# In order to assess the hematopoietic effects of retinoid agonists on purified human HSCs, BM and CB CD34^+CD38^−lin^− cells were placed in culture with TSF with and without 1 μM all-trans retinoic acid (ATRA), an agonist of RAR. Total cell expansion, immunophenotype, CFC content and morphologic analysis was performed on ATRA-treated progeny and compared with both day 0 CD34^+CD38^−lin^− populations and the progeny of TSF alone to assess the impact of retinoid agonism on the differentiation of human HSCs.
# [2] = tested on: BM and CB CD34+CD38−lin− cells; test: 7 day culture of BM and CB CD34+CD38−lin− cells with TSF with and without DEAB (cell counts, immunophenotype, morphology); type: cell-based, human
# Method: as §1
# [3] = tested on: HOXB4; test: Quantitative real-time PCR of HOXB4 in cultured CB CD34+CD38−lin− cells; type: cell-based, human; conditions: DEAB added to TSF (TSF alone 5-fold decrease vs day 0)
# Method: (§2) Extraction of total RNA from Day 0 and Day 7 CB CD34^+ populations was done using a RNeasy Mini spin column (Qiagen, Valencia, Calif.) according to the manufacturer's recommended protocol. […] Briefly, total RNA was isolated from CD34^+CD38^−lin^− cells according to the manufacturer's instructions for the RNaqueous®-Micro (Ambion) and reversed-transcribed to cDNA using iScript™ cDNA synthesis Kit (Biorad, Hercules, Calif.). cDNA concentrations were measured with a fluorometer (Turner Designs, Sunnyvale, Calif.) using RiboGreen reagent (Invitrogen). PCR amplification reactions were performed in 13 μl and contained equal amounts of cDNAs, 6.5 μl of iQ SYBR green supermix (Bio-Rad), 0.2 μM of each forward and reverse gene-specific primers for genes of interest and the normalization gene 36B4. PCR was performed on an iCycler (Bio-Rad) according to the following cycling conditions: an initial cycle of 15 min at 95° C.; 45 cycles of 45 sec at 95° C., 15 sec at 55° C., and 15 sec at 72° C.; followed by a melt-curve analysis cycle with steps of 10 sec each at 0.5° C. increments from 60 to 95° C. Amplification rates were visualized and analyzed on ICYCLER IQ optical system software version 3.0 (Bio-Rad). Gene-specific primers were purchased from Integrated DNA Technologies (Coralville, Iowa).
# [4] = tested on: BM CD34+CD38−lin− cells; test: Fourteen day methylcellulose CFC assay of culture progeny; type: cell-based, human; conditions: DEAB+TSF 7 days (TSF alone 5-fold increase vs input)
# Method: (§3) Primary human BM and CB CD34^+CD38^−lin^− cells were placed in culture with 20 ng/mL thrombopoietin, 100 ng/mL SCF, and flt-3 ligand (TSF), a cytokine combination previously found to induce human stem and progenitor cell proliferation and differentiation in vitro (Chute et al, Blood 105:576-583 (2005), Chute et al, Stem ells 22:202-215 (2004)). In order to assess whether inhibition of ALDH activity could block the differentiation of human HSCs induced to proliferate by TSF, 1-2×10^4 BM or CB CD34^+CD38^−lin^− cells were cultured×7 days with IMDM, 10% FBS and 1% pcn/strp supplemented with TSF with and without 100 μM DEAB. At day 7, the progeny of all cultures were collected, washed×2 and cell counts were performed. A minimum of n=5 experiments was performed per culture condition to allow statistical comparisons to be performed. Immunophenotypic analysis was performed on progeny cells using anti-human CD34 and CD38 mAbs (Becton Dickinson) and isotype control IgG mAbs and compared with day 0 (input) staining. […]
# [5] = tested on: ALDH; test: ALDH activity by ALDEFLUOR staining of cultured CD34+CD38− cells; type: cell-based, human; conditions: 100 μM DEAB+TSF, 7 days, compared to day 0 or TSF alone, P=0.001
# Method: as §3
# [6] = tested on: CB CD34+CD38−lin− cells (SRCs); test: Long-term repopulating assay in NOD/SCID mice, CB cells (limiting dilution, SRC frequency); type: in vivo, human
# Method: (§4) NOD/SCID mice (Schulz et al, J. Immunol. 154:180-191 (1995)) were transplanted with either day 0 FACS-sorted BM or CB CD34^+CD38^−lin− HSC-enriched cells or the progeny of CD34^+CD38^−lin− cells cultured with TSF alone or TSF supplemented with 100 μM DEAB. Cells were transplanted via tail vein injection after irradiating NOD/SCID mice with 300 cGy using an X-ray irradiator as previously described (Chute et al, Blood 100:4433-4439 (2002), Chute et al, Blood 105:576-583 (2005)). Day 0 CD34^+CD38^−lin− HSCs and their progeny were co-transplanted with 2×10^4 […] to facilitate engraftment as previously described (Bonnet et al, Bone Marrow Transpl. 23:203-209 (1999), Bhatia et al, Proc. Natl. Acad. Sci. USA 94:5320-5325 (1997)).
# (§5) All mice in each group were sacrificed at week 8 and marrow samples were obtained by flushing their femurs with IMDM at 4° C. Red cells were lysed using red cell lysis buffer (Sigma-Aldrich) and flow cytometric analysis of human hematopoietic engraftment was performed as previously described using commercially available mAbs against human leukocyte differentiation antigens to identify engrafted human leukocytes and discriminate their hematopoietic lineages (Chute et al, Blood 100:4433-4439 (2002), Chute et al, Blood 105:576-583 (2005), Trischmann et al, J. Hematother. 2:305-313 (1993)).
# (§6) Comparisons of data from in vitro experiments were made using the Student's t test. For purposes of the limiting dilution analysis, a transplanted mouse was scored as positively engrafted if ≧0.1% of the marrow cells expressed human-CD45 via high resolution FACS analysis. This criteria is consistent with previously published criteria for human cell repopulation in NOD/SCID mice (Chute et al, Blood 100:4433-4439 (2002), Dorrell et al, Blood 95:102-110 (2000)). SRC frequency in each cell source was calculated using the maximum likelihood estimator as described previously by Taswell (J. Immunol. 126:1614-1619 (1981), Wang et al, Blood 89:3919-3924 (1997), Ueda et al, J. Clin. Invest. 105:1013-1021 (2000)). Confidence intervals for the frequencies were calculated using the profile likelihood method, and the likelihood ratio test was used to confirm the fit of the model.
# [7] = tested on: BM CD34+CD38−lin− cells (SRCs); test: Long-term repopulating assay in NOD/SCID mice, BM cells (SRC frequency); type: in vivo, human
# Method: as §4, §5, §6
# [8] = tested on: Notch; test: Quantitative real-time PCR of Notch in cultured CB CD34+CD38−lin− cells; type: cell-based, human; conditions: DEAB+TSF
# Method: as §2
# [9] = progeny of DEAB+TSF cultures, cell dose 0.5-1×10^3, 8 weeks
smiles,measurement,setting,value
"CC1=C(/C=C/C(C)=C/C=C/C(C)=C/C(=O)O)C(C)(C)CCC1 [ATRA, all-trans retinoic acid]",HSC differentiation in presence of DEAB,[1]; 1 μM ATRA+100 μM DEAB+TSF,HSC differentiation occurred
same,number of CFCs compared to TSF alone,[1]; ATRA+TSF treated cultures,decreased
same,differentiation and maturation of human HSCs,"[1]; ATRA, by day 7",induced pronounced differentiation and myeloid maturation
same,CD34+CD38− cells remaining in culture,"[1]; TSF+1 μM ATRA, day 7",no CD34^+CD38^− cells remained
same,percentage of CD34+ cells relative to TSF alone,"[1]; TSF+1 μM ATRA, day 7",declined
CCN(CC)c1ccc(C=O)cc1 [DEAB],absolute numbers of CD34+CD38− cells compared to day 0,"[2]; 100 μM DEAB+TSF, 7 days (TSF alone 5-fold decrease)",maintenance
same,mean total cell expansion,"[2]; 100 μM DEAB+TSF, 7 days (TSF alone 15-fold)",4 fold
same,percentages of primitive CD34+CD38− cells in progeny,"[2]; BM and CB cells, DEAB+TSF 7 days, compared to TSF alone, P=0.01 and P=0.02",significantly higher
same,morphologic examination of progeny,"[2]; DEAB+TSF cultures, Wrights-Giemsa staining, data not shown",predominance of cells with high nuclear:cytoplasmic ratios and prominent nucleoli
same,HOXB4 expression relative to input levels,[3],80% and 70%
same,CFC content of progeny,[4],little CFC content
same,ALDH activity in CD34+CD38− cells,[5],significantly reduced
same,fold increase in SRC frequency,[6]; DEAB+TSF versus day 0 cells or TSF alone,2 fold
same,multilineage differentiation in transplanted mice,"[6]; mice transplanted with DEAB+TSF cultured cells, flow cytometry of BM","extensive CD34^+ progenitor cell, CD19^+ B lymphoid and CD 33/13^+ myeloid differentiation"
same,fold higher levels of huCD45+ cell engraftment,[6]; [9],4 fold
same,mean huCD45+ cell engraftment,[6]; [9],0.9%
same,mice showing huCD45+ cell repopulation at 8 weeks,"[6]; progeny of DEAB+TSF cultures, cell dose 0.5-1×10^3, 9 of 17 mice (day 0 31%, TSF 18%)",53%
same,higher levels of huCD45+ cell engraftment versus day 0 or TSF,"[6]; progeny of DEAB+TSF cultures, cell dose 2.5×10^3",1 log
same,mean huCD45+ cell engraftment,"[6]; progeny of DEAB+TSF cultures, cell dose 2.5×10^3, 8 weeks (day 0 0.9%, TSF 0.7%)",8.0%
same,huCD45+ cell repopulation,"[7]; cell dose 1-2.5×10^3, TSF+DEAB progeny",no huCD45^+ cell repopulation was detected
same,transplanted mice with human repopulation (FIG. 4 legend),[7]; progeny of 5×10^3 cells after DEAB+TSF culture,50-80%
same,mean huCD45+ cell engraftment,"[7]; progeny of DEAB+TSF cultures, cell dose 5×10^3",0.1%
same,mice showing huCD45+ cell engraftment,"[7]; progeny of DEAB+TSF cultures, cell dose 5×10^3, 3 of 6 mice (day 0 and TSF 0 of 5)",50%
same,Notch transcription compared to TSF alone,[8],did not alter
